Laboratory results as given in article PMC4574779, “Selective Production of 9R-Hydroxy-10E,12Z,15Z-Octadecatrienoic Acid from α-Linolenic Acid in Perilla Seed Oil Hydrolyzate by a Lipoxygenase from Nostoc Sp. SAG 25.82” (PLoS ONE, 2015).

Target: T1, 9R-LOX (9R-lipoxygenase) from Nostoc sp. SAG 25.82 (Nostoc sp. PCC 7120 = FACHB-418, UniProt Q8YK97)
T1 construct: gene all8020; 9R-lox/pET-15b, His-tagged, E. coli ER2566, His-Trap purified
T1 sequence (Q8YK97 318-773 limits assumed): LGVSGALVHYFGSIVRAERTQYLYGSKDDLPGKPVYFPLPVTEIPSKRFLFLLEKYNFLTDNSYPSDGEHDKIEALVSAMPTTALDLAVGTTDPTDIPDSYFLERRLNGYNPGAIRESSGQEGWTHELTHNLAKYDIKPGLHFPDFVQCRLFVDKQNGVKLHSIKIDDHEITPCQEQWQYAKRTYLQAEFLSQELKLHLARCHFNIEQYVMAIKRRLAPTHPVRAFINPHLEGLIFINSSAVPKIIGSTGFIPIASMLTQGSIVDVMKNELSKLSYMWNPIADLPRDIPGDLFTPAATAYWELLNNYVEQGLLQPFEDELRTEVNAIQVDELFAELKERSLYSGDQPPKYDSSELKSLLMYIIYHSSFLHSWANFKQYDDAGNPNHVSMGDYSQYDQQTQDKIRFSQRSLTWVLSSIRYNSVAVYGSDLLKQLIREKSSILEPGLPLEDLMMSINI
Test: oxygen uptake (Clark-type electrode), nonlinear Michaelis-Menten fit
Format: biochemical
Details: O2 co-substrate; 50 mM Tris-HCl pH 8.5; 25°C in methods (results text: 15°C, 5% acetone, 0.2% Tween 80)
From the text: oxygen uptake (Clark-type electrode), nonlinear Michaelis-Menten fit on 9R-LOX (9R-lipoxygenase) from Nostoc sp. SAG 25.82

Compound	Km
CC/C=C\C/C=C\C/C=C\CCCCCCCC(=O)O [ALA, α-Linolenic acid]	54 ± 1.3 µM
CCCCC/C=C\C/C=C\CCCCCCCC(=O)O [LA, Linoleic acid]	404 ± 30 µM
CCCCC/C=C\C/C=C\C/C=C\CCCCC(=O)O [GLA, γ-Linolenic acid]	54 ± 0.8 µM
